Patent publication US4812409A, “Hydrolyzable fluorescent substrates and analytical determinations using same” (Eastman Kodak Company, priority 1986, dated 1989)

Legend:
Type in all cases: biochemical
trypsin, Type III = target: T1, trypsin, Type III (Bos taurus, UniProt P00760); assay: Determination of hydrolytic enzymes: trypsin Type III; settings: pH 7.8, 25° C., ex 540 nm, em 595 nm
T1 sequence (P00760 24-246): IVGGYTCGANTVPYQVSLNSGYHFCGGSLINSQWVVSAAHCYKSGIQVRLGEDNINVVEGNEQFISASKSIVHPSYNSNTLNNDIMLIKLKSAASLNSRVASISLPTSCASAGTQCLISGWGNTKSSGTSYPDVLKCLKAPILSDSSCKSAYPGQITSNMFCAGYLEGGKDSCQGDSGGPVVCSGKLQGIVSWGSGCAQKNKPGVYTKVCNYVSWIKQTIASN
Experimental: (§1) Test solutions were prepared with the following: 50 μl of substrate (1 mg/μl methanol), […] of 0.05 molar potassium phosphate buffer at the indicated pH (near the optimum for each enzyme) and 10 μl of enzyme. Enzymes to be determined included carboxylesterase, Type I (pH 7.8) and Type II (pH 6.0), aminoacylase, Grade I (pH 7.0), and trypsin, Type I and III (pH 7.8). Sample preparations and testing were done in an area protected from light. The enzyme solutions were kept at 0° C. prior to use, and assays were run at 25° C. with fluorescence measured at an excitation of 540 nm and an emission of 595 nm.

carboxylesterase, Type I = assay: Determination of hydrolytic enzymes: carboxylesterase Type I; settings: pH 7.8, 25° C., ex 540 nm, em 595 nm
Experimental: as §1

trypsin, Type I = target: T2, trypsin, Type I (Bos taurus, UniProt P00760); assay: Determination of hydrolytic enzymes: trypsin Type I; settings: pH 7.8, 25° C., ex 540 nm, em 595 nm
T2 sequence (P00760 24-246): T1 sequence (P00760 24-246)
Experimental: as §1

aminoacylase, Grade I = target: T3, aminoacylase, Grade I (Sus scrofa, UniProt P37111); assay: Determination of hydrolytic enzymes: aminoacylase Grade I; settings: Final Enzyme Activity 3,000 I.U., pH 7.0, 25° C., ex 540 nm, em 595 nm
T3 sequence (P37111 2-407 limits assumed): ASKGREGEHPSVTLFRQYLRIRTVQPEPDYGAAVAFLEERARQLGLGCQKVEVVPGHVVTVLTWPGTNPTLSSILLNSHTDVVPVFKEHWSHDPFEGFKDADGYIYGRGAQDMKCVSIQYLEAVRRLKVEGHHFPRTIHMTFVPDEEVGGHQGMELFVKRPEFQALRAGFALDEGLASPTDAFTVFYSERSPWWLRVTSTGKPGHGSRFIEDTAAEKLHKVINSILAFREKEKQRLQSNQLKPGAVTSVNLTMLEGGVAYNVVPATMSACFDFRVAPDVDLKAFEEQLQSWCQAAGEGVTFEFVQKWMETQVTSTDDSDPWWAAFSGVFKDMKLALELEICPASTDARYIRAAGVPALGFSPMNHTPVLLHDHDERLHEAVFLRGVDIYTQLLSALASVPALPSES
Experimental: as §1

[1] = system: carboxylesterase, Type II; assay: Determination of hydrolytic enzymes: carboxylesterase Type II; settings: Final Enzyme Activity 15 I.U., pH 6.0, 25° C., ex 540 nm, em 595 nm
Experimental: as §1

CC(=O)Nc1ccc2c3c(cccc13)C(=O)C=C2 [Example 5]
Relative Fluorescence (minus control with no enzyme) (trypsin, Type III; Final Enzyme Activity 6,000 I.U., 0 Min): 2.7 | Relative Fluorescence (minus control with no enzyme) (trypsin, Type III; Final Enzyme Activity 6,000 I.U., 10 Min): 2.8 | Relative Fluorescence (minus control with no enzyme) (trypsin, Type III; Final Enzyme Activity 6,000 I.U., 15 Min): 3.0 | Relative Fluorescence (minus control with no enzyme) (trypsin, Type III; Final Enzyme Activity 6,000 I.U., 30 Min): 3.6 | Relative Fluorescence (minus control with no enzyme) (trypsin, Type III; Final Enzyme Activity 60,000 I.U., 0 Min): 2.2 | Relative Fluorescence (minus control with no enzyme) (trypsin, Type III; Final Enzyme Activity 60,000 I.U., 10 Min): 3.5 | Relative Fluorescence (minus control with no enzyme) (trypsin, Type III; Final Enzyme Activity 60,000 I.U., 15 Min): 3.4 | Relative Fluorescence (minus control with no enzyme) (trypsin, Type III; Final Enzyme Activity 60,000 I.U., 30 Min): 4.3 | Relative Fluorescence (minus control with no enzyme) (carboxylesterase, Type I; Final Enzyme Activity 9.6 I.U., 0 Min): 2.7 | Relative Fluorescence (minus control with no enzyme) (carboxylesterase, Type I; Final Enzyme Activity 9.6 I.U., 10 Min): 3.6 | Relative Fluorescence (minus control with no enzyme) (carboxylesterase, Type I; Final Enzyme Activity 9.6 I.U., 15 Min): 4.1 | Relative Fluorescence (minus control with no enzyme) (carboxylesterase, Type I; Final Enzyme Activity 9.6 I.U., 30 Min): 4.4 | Relative Fluorescence (minus control with no enzyme) (carboxylesterase, Type I; Final Enzyme Activity 96 I.U., 0 Min): 3.0 | Relative Fluorescence (minus control with no enzyme) (carboxylesterase, Type I; Final Enzyme Activity 96 I.U., 10 Min): 6.1 | Relative Fluorescence (minus control with no enzyme) (carboxylesterase, Type I; Final Enzyme Activity 96 I.U., 15 Min): 7.9 | Relative Fluorescence (minus control with no enzyme) (carboxylesterase, Type I; Final Enzyme Activity 96 I.U., 30 Min): 12.5 | Relative Fluorescence (minus control with no enzyme) (trypsin, Type I; Final Enzyme Activity 5,000 I.U., 0 Min): 0 | Relative Fluorescence (minus control with no enzyme) (trypsin, Type I; Final Enzyme Activity 5,000 I.U., 10 Min): 0.5 | Relative Fluorescence (minus control with no enzyme) (trypsin, Type I; Final Enzyme Activity 5,000 I.U., 15 Min): 0.6 | Relative Fluorescence (minus control with no enzyme) (trypsin, Type I; Final Enzyme Activity 5,000 I.U., 30 Min): 0.8 | Relative Fluorescence (minus control with no enzyme) (trypsin, Type I; Final Enzyme Activity 50,000 I.U., 0 Min): 0 | Relative Fluorescence (minus control with no enzyme) (trypsin, Type I; Final Enzyme Activity 50,000 I.U., 10 Min): 0.7 | Relative Fluorescence (minus control with no enzyme) (trypsin, Type I; Final Enzyme Activity 50,000 I.U., 15 Min): 0.9 | Relative Fluorescence (minus control with no enzyme) (trypsin, Type I; Final Enzyme Activity 50,000 I.U., 30 Min): 1.5 | Relative Fluorescence (minus control with no enzyme) (aminoacylase, Grade I; 0 Min): 1.5 | Relative Fluorescence (minus control with no enzyme) (aminoacylase, Grade I; 10 Min): 2.0 | Relative Fluorescence (minus control with no enzyme) (aminoacylase, Grade I; 15 Min): 2.1 | Relative Fluorescence (minus control with no enzyme) (aminoacylase, Grade I; 30 Min): 2.3 | Relative Fluorescence (minus control with no enzyme) ([1]; 0 Min): 2.0 | Relative Fluorescence (minus control with no enzyme) ([1]; 10 Min): 5.4 | Relative Fluorescence (minus control with no enzyme) ([1]; 15 Min): 8.0 | Relative Fluorescence (minus control with no enzyme) ([1]; 30 Min): 15.8
